US6933290B2, “2-{N-(2-amino-3-(heteroaryl or aryl)propionyl)-aminoacyl}-amino}-alkylboronic acid derivatives” (Novartis AG, priority 2001, dated 2005)
Values joined by “and” are separate entries in the source; they are usually repeats but may differ in a detail not shown here. Equal entries are not always repeated.

Target: T1, chymotrypsin-like activity of the 20S proteasome (Homo sapiens, UniProt P20618+P28074)
T1 construct: purified human placenta 20S proteasome; tissue Diabetes Forschungsinstitut, Düsseldorf, Germany; host or cells: human placenta
Assay: Inhibition of the chymotrypsin-like activity of the 20S proteasome (Suc-LLVY-AMC hydrolysis)
Format: biochemical
Settings: purified human placenta 20S proteasome, Suc-LLVY-AMC substrate, read-out: IC50 [μM] (results of one or two experiments)
Text: It is based on the hydrolysis of the fluorogenic peptide Suc-LLVY-AMC (Succinyl-leucine-leucine-vatine-tyrosine-7-amino-4-methyl-coumarin), which is cleaved exclusively at the Y-AMC bond by the 20S proteasome. Hydrolysis of this peptide is accompanied by an increase in fluorescence intensity (λex (excitation wavelength): 355 nm; μem (emission wavelength): 460 nm) due to release of the […] that accompanies diffusion apart of the hydrolysis product Suc-LLVY.
2 μl of a 1 mM solution of a test compound in DMSO (dimethylsulfoxide, 20 μM final concentration in the well) are preincubated for 60 min at room temperature in black 96-well microtiter plates together with a mixture of 1 μl purified human placenta 20S proteasome (Diabetes Forschungsinstitut, DÜsseldorf, Germany; about 100 ng proteasome, depending on the proteasome preparation) and 47 μl buffer-Ca (5 mM CaCl2, 20 mM Tris/HCl (Tris-(hydroxymethyl)-amino-methane hydrochloride) pH 8.0). 3 μl of a 2.67 mM solution of Suc-LLVY-AMC (Bachem, Switzerland) in DMSO (80 μM final concentration in the well) and 47 μl buffer-Ca are mixed and added. The resulting mixture is incubated for 3-24 h at 37° C. If desired, proteolysis of the substrate can be stopped by addition of 50 μl stop solution (100 mM monochloroacetic acid, 130 mM NaOH, 100 mM acetic acid, pH=4.3). The fluorescence is monitored with a FLUOROSKAN ASCENT™ microtiter plate reader.
For each measurement series two control experiments are carried out: • 1.) 0% value: 2 μl DMSO are used in the above described assay instead of 2 μl of a 1 mM solution of a test compound in DMSO and 48 μl buffer-Ca instead of a mixture of 47 μl buffer-Ca and 1 μl purified proteasome. • 2.) 100% value: in the above described assay 2 μl DMSO are used instead of 2 μl of a 1 mM solution of the test compound in DMSO. Calculation [formula]
The IC50 value is defined as that concentration of a compound at which the remaining activity is 50% compared to the […].

COc1cc(C[C@H](Nc2cccc(-c3ccccc3)c2)C(=O)N[C@H](C(=O)N[C@@H](CC(C)C)B2O[C@@H]3C[C@@H]4C[C@@H](C4(C)C)[C@]3(C)O2)C(C)C)cc(OC)c1OC [Example 1, (S)-2-[(S)-2-(Biphenyl-3-ylamino)-3-(3,4,5-trimethoxy-phenyl)-propionylamino]-3-methyl-N-[(R)-3-methyl-1-((1S,2S,6R,8S)-2,9,9-trimethyl-3,5-dioxa-4-bora-tricyclo[6.1.1.0^2,6]dec-4-yl)-butyl]-butyramide]
IC50: 0.0046 µM and 0.0024 µM

COc1cc(C[C@H](Nc2cccc(-c3ccccc3)c2)C(=O)N[C@H](C(=O)N[C@@H](CC(C)C)B(O)O)C(C)C)cc(OC)c1OC [Example 2, (R)-1-{(S)-2-[(S)-2-(Biphenyl-3-ylamino)-3-(3,4,5-trimethoxy-phenyl)-propionylamino]-3-methyl-butyrylamino}-3-methyl-butylboronic acid]
IC50: 0.0028 µM and 0.0021 µM

COc1ccc(C[C@H](NC(=O)Cc2cccc(Oc3ccccc3)c2)C(=O)N[C@H](C(=O)N[C@@H](CC(C)C)B2O[C@@H]3C[C@@H]4C[C@@H](C4(C)C)[C@]3(C)O2)C(C)C)c(OC)c1OC [Example 3, (S)-3-Methyl-N-[(R)-3-methyl-1-((1S,2S,6R,8S)-2,9,9-trimethyl-3,5-dioxa-4-bora-tricyclo[6.1.1.0^2,6]dec-4-yl)-butyl]-2-[(S)-2-[2-(3-phenoxy-phenyl)-acetylamino]-3-(2,3,4-trimethoxy-phenyl)-propionylamino]-butyramide]
IC50: 0.0017 µM and 0.0014 µM

COc1ccc(C[C@H](NC(=O)Cc2cccc(Oc3ccccc3)c2)C(=O)N[C@H](C(=O)N[C@@H](CC(C)C)B(O)O)C(C)C)c(OC)c1OC [Example 4]
IC50: 0.0019 µM and 0.0015 µM

COc1ccc(C[C@H](NC(=O)CCc2ccccc2)C(=O)N[C@H](C(=O)N[C@@H](CC(C)C)B2O[C@@H]3C[C@@H]4C[C@@H](C4(C)C)[C@]3(C)O2)C(C)C)c(OC)c1OC [Example 5, (S)-3-Methyl-N-[(R)-3-methyl-1-((1S,2S,6R,8S)-2,9,9-trimethyl-3,5-dioxa-4-bora-tricyclo[6.1.1.0^2,6]dec-4-yl)-butyl]-2-[(S)-2-(3-phenyl-propionyl-amino)-3-(2,3,4-trimethoxyphenyl)-propionylamino]-butyramide]
IC50: 0.0013 µM and 0.0006 µM

COc1ccc(C[C@H](NC(=O)CCc2ccccc2)C(=O)N[C@H](C(=O)N[C@@H](CC(C)C)B(O)O)C(C)C)c(OC)c1OC [Example 6, (R)-3-Methyl-1-{(S)-3-methyl-2-[(S)-2-(3-phenyl-propionylamino)-3-(2,3,4-trimethoxy-phenyl)-propionylamino]-butyrylamino}-butylboronic acid]
IC50: 0.0018 µM and 0.0019 µM

COc1ccc(C[C@H](Nc2cccc(-c3ccccc3)c2)C(=O)N[C@H](C(=O)N[C@@H](CC(C)C)B2O[C@@H]3C[C@@H]4C[C@@H](C4(C)C)[C@]3(C)O2)C(C)C)cc1 [Example 7, (S)-2-[(S)-2-(Biphenyl-3-ylamino)-3-(4-methoxy-phenyl)-propionylamino]-3-methyl-N-[(R)-3-methyl-1-((1S,2S,6R,8S)-2,9,9-trimethyl-3,5-dioxa-4-bora-tricyclo[6.1.1.0^2,6]dec-4-yl)-butyl]-butyramide]
IC50: 0.0029 µM and 0.0032 µM

COc1ccc(C[C@H](Nc2cccc(-c3ccccc3)c2)C(=O)N[C@H](C(=O)N[C@@H](CC(C)C)B(O)O)C(C)C)cc1 [Example 8, (R)-1-{(S)-2-[(S)-2-(Biphenyl-3-ylamino)-3-(4-methoxy-phenyl)-propionylamino]-3-methyl-butyrylamino}-3-methyl-butylboronic acid]
IC50: 0.0028 µM and 0.0045 µM

COc1ccc(C[C@H](Nc2cccc(-c3ccccc3)c2)C(=O)N[C@H](C(=O)N[C@@H](CC(C)C)B2O[C@@H]3C[C@@H]4C[C@@H](C4(C)C)[C@]3(C)O2)C(C)C)cc1OC [Example 9, (S)-2-[(S)-2-(Biphenyl-3-ylamino)-3-(3,4-dimethoxy-phenyl)-propionylamino]-3-methyl-N-[(R)-3-methyl-1-((1S,2S,6R,8S)-2,9,9-trimethyl-3,5-dioxa-4-bora-tricyclo[6.1.1.0^2,6]dec-4-yl)-butyl]-butyramide]
IC50: 0.0017 µM and 0.0022 µM

COc1ccc(C[C@H](Nc2cccc(-c3ccccc3)c2)C(=O)N[C@H](C(=O)N[C@@H](CC(C)C)B(O)O)C(C)C)cc1OC [Example 10, (R)-1-{(S)-2-[(S)-2-(Biphenyl-3-ylamino)-3-(3,4-dimethoxy-phenyl)-propionylamino]-3-methyl-butyrylamino}-3-methyl-butylboronic acid]
IC50: 0.0029 µM and 0.004 µM

COc1cc(C[C@H](Nc2cccc(C(C)C)c2)C(=O)N[C@H](C(=O)N[C@@H](CC(C)C)B2O[C@@H]3C[C@@H]4C[C@@H](C4(C)C)[C@]3(C)O2)C(C)C)cc(OC)c1OC [Example 11, (S)-2-[(S)-2-(3-Isopropyl-phenylamino)-3-(3,4,5-trimethoxy-phenyl)-propionylamino]-3-methyl-N-[(R)-3-methyl-1-((1S,2S,6R,8S)-2,9,9-trimethyl-3,5-dioxa-4-bora-tricyclo[6.1.1.0^2,6]dec-4-yl)-butyl]-butyramide]
IC50: 0.0039 µM

COc1cc(C[C@H](Nc2cccc(C(C)C)c2)C(=O)N[C@H](C(=O)N[C@@H](CC(C)C)B(O)O)C(C)C)cc(OC)c1OC [Example 12, (R)-1-{(S)-2-[(S)-2-(3-Isopropyl-phenylamino)-3-(3,4,5-trimethoxy-phenyl)-propionylamino]-3-methyl-butyrylamino}-3-methyl-butylboronic acid]
IC50: 0.0038 µM

COc1cc(C[C@H](Nc2cccc(-c3ccccn3)c2)C(=O)N[C@H](C(=O)N[C@@H](CC(C)C)B2O[C@@H]3C[C@@H]4C[C@@H](C4(C)C)[C@]3(C)O2)C(C)C)cc(OC)c1OC [Example 13, (S)-3-Methyl-N-[(R)-3-methyl-1-((1S,2S,6R,8S)-2,9,9-trimethyl-3,5-dioxa-4-bora-tricyclo[6.1.1.0^2,6]dec-4-yl)-butyl]-2-[(S)-2-(3-pyridin-2-yl-phenylamino)-3-(3,4,5-trimethoxy-phenyl)-propionylamino]-butyramide]
IC50: 0.0013 µM

COc1cc(C[C@H](Nc2cccc(-c3ccccn3)c2)C(=O)N[C@H](C(=O)N[C@@H](CC(C)C)B(O)O)C(C)C)cc(OC)c1OC [Example 14, (R)-3-Methyl-1-[(S)-3-methyl-2-[(S)-2-(3-pyridin-2-yl-phenylamino)-3-(3,4,5-trimethoxy-phenyl)-propionylamino]-butyrylamino)-butylboronic acid]
IC50: 0.0017 µM

COc1ccc(C[C@H](Nc2cccc(-c3ccccc3)c2)C(=O)N[C@H](C(=O)N[C@@H](CC(C)C)B2O[C@@H]3C[C@@H]4C[C@@H](C4(C)C)[C@]3(C)O2)C(C)C)c(OC)c1OC [Example 15, (S)-2-[(S)-2-(Biphenyl-3-ylamino)-3-(2,3,4-trimethoxy-phenyl)-propionylamino]-3-methyl-N-[(R)-3-methyl-1-((1S,2S,6R,8S)-2,9,9-trimethyl-3,5-dioxa-4-bora-tricyclo[6.1.1.0^2,6]dec-4-yl)-butyl]-butyramide]
IC50: 0.0071 µM

COc1ccc(C[C@H](Nc2cccc(-c3ccccc3)c2)C(=O)N[C@H](C(=O)N[C@@H](CC(C)C)B(O)O)C(C)C)c(OC)c1OC [Example 16, (R)-1-{(S)-2-[(S)-2-(Biphenyl-3-ylamino)-3-(2,3,4-trimethoxy-phenyl)-propionylamino]-3-methyl-butyrylamino}-3-methyl-butylboronic acid]
IC50: 0.0059 µM

CC(C)C[C@H](NC(=O)[C@@H](NC(=O)[C@H](Cc1ccc(OCc2ccccc2)cc1)Nc1cccc(-c2ccccc2)c1)C(C)C)B1O[C@@H]2C[C@@H]3C[C@@H](C3(C)C)[C@]2(C)O1 [Example 17, (S)-2-[(S)-3-(4-Benzyloxy-phenyl)-2-(biphenyl-3-ylamino)-propionylamino]-3-methyl-N-[(R)-3-methyl-1-((1S,2S,6R,8S)-2,9-trimethyl-3,5-dioxa-4-bora-tricyclo[6.1.1.0^2,6]dec-4-yl)-butyl]-butyramide]
IC50: 0.0093 µM

CC(C)C[C@H](NC(=O)[C@@H](NC(=O)[C@H](Cc1ccc(OCc2ccccc2)cc1)Nc1cccc(-c2ccccc2)c1)C(C)C)B(O)O [Example 18, (R)-1-{(S)-2-[(S)-3-(4-Benzyloxy-phenyl)-2-(biphenyl-3-ylamino)-propionylamino]-3-methyl-butyrylamino}-3-methyl-butylboronic acid]
IC50: 0.0015 µM

COc1cc(C[C@@H](Nc2cccc(-c3ccccc3)c2)C(=O)N[C@H](C(=O)N[C@@H](CC(C)C)B2O[C@@H]3C[C@@H]4C[C@@H](C4(C)C)[C@]3(C)O2)C(C)C)cc(OC)c1OC [Example 21, (S)-2-[(R)-2-(Biphenyl-3-ylamino)-3-(3,4,5-trimethoxy-phenyl)-propionylamino]-3-methyl-N-[(R)-3-methyl-1-((1S,2S,6R,8S)-2,9,9-trimethyl-3,5-dioxa-4-bora-tricyclo[6.1.1.0^2]dec-4-yl)-butyl]-butyramide]
IC50: 0.0015 µM
